# Measured values from patent US10478390B2, “Use of glycosides to increase hair mass” (L'OREAL, priority 2015, dated 2019).
# Test system: hair follicles from biopsies of human scalps
# Test: Hair follicles cultured in vitro for 8 days: increase in the diameter of the hair shaft (fiber)
# Type: cell-based
# Details: for average % of increase of the diameter of the shafts: same test as for proxylane, method states each glycoside at 10 μM, d0 to d8; for average % of increase between D0 and D8: PX 1 mM, hair shaft diameter
# Method: The hair follicles come from biopsies of human scalps, from cosmetic surgery operations conducted on white Caucasian women aged 45 to 75 years.
# The hair follicles are dissected according to the method described in patent application FR 2 736 721 and U.S. Pat. No. 5,712,169, and only the terminal anagen and pigmented hair follicles are studied.
# Freshly dissected hair follicles are introduced into multi-well plates containing 500 μL of William's medium, Invitrogen reference 22551022, enriched with insulin to […], 10 ng/mL of hydrocortisone, 10 μg/mL of L-Glutamine and 0.5% antibiotics (Gibco, reference 15240-096).
# The C-glycosides are then incubated versus a vehicle alone (control condition), the hair follicles are placed in the incubator (37° C., 5% CO2) and kept alive in these different conditions for 8 days. The culture mediums (of the treated and control conditions) are replaced every two days.
# Each glycoside is studied at 10 μM, (dilution of the solid compound in water), versus the vehicle alone (water) for the control condition.
# Each condition is carried out on 12 different hair follicles, which makes it possible to overcome inter-follicle variabilities, and repeated over 3 different subjects (biopsies of scalp from 3 different volunteers) in order to evaluate the robustness of the results, and to overcome inter-donor variability.
# During the 8 days of treatment, all of the hair follicles are observed and photographed every two days in order to evaluate the maintaining of their survival. They are also measured using a binocular magnifier (Leica) provided with a micrometric eyepiece in order to ensure the proper growth thereof.
# The diameter of the hair shaft is measured using photographs taken of all of the hair follicles at d0 and at d8. Using the Leica Application Suite software (Leica), the hair shaft is cropped, its surface is then calculated and its average diameter is determined. The increase in the diameter of the fiber generated in vitro is determined by: (average diameter at d8 Dd8−average diameter at d0 Dd0)*100/Dd0.
Structure (SMILES),average % of increase of the diameter of the shafts [%],"thickness of the newly-formed hair shaft (for each subject, in the presence of proxylane)","average % of increase between D0 and D8 (individual 1, control +9.7)","average % of increase between D0 and D8 (individual 2, control +2.7)","average % of increase between D0 and D8 (individual 3, control +4.3)"
"O[C@H]1[C@H](O)COC(OCCc2ccccc2)[C@@H]1O (stereo partly drawn) [Glycoside 3, 2-phenylethyl D-xylopyranoside]",16,–,–,–,–
"CC(O)C[C@@H]1OC[C@@H](O)[C@H](O)[C@H]1O (stereo partly drawn) [PX, 1,5-anhydro-6,8-dideoxy-L-gluco-octitol (Proxylane)]",–,increase in the thickness of the newly-formed hair shaft is observed,+17.5%,+11.2%,+14.5%
"COc1cc(CCC(O)CC2OC[C@@H](O)[C@H](O)[C@H]2O)ccc1O (stereo partly drawn) [Glycoside 2, (3R,4S,5R)-2-[2-hydroxy-4-(4-hydroxy-3methxyphenyl)butyl] tetrahydro-2Hpyran-3,4,5-triol]",12.7,–,–,–,–
"OC1OC[C@@H](O)[C@H](O)[C@H]1O (stereo partly drawn) [Glycoside 4, D-xylose]",11,–,–,–,–
